In PubChem BioAssay (NCI):
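Cells were grown in 96-well plates and exposed to each compound for 48 hours at five concentrations; endpoints were interpolated linearly between bracketing concentrations, or set to the highest concentration if not reached. GI50 = concentration required for 50% inhibition of growth. Definition used: TGI = concentration required for complete inhibition of growth.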

Legend:
Assay in all cases: inhibition of tumour cell growth, NCI panel, 48 h
MDA-MB-435 = test system: MDA-MB-435
KM12 colon = test system: KM12 colon
SN12C renal = test system: SN12C renal
K-562 leukemia = test system: K-562 leukemia
HT29 colon = test system: HT29 colon
SK-MEL-5 melanoma = test system: SK-MEL-5 melanoma
SW-620 colon = test system: SW-620 colon
HCC-2998 colon = test system: HCC-2998 colon
ACHN renal = test system: ACHN renal
OVCAR-3 ovarian = test system: OVCAR-3 ovarian
HL-60(TB) leukemia = test system: HL-60(TB) leukemia
A498 renal = test system: A498 renal
SK-MEL-28 melanoma = test system: SK-MEL-28 melanoma
CCRF-CEM leukemia = test system: CCRF-CEM leukemia
NCI-H226 lung = test system: NCI-H226 lung
DU-145 prostate = test system: DU-145 prostate
UACC-257 melanoma = test system: UACC-257 melanoma
OVCAR-5 ovarian = test system: OVCAR-5 ovarian
T-47D breast = test system: T-47D breast
NCI-H23 lung = test system: NCI-H23 lung
TK-10 renal = test system: TK-10 renal
HCT-15 colon = test system: HCT-15 colon
RPMI-8226 leukemia = test system: RPMI-8226 leukemia
MCF7 breast = test system: MCF7 breast
LOX IMVI melanoma = test system: LOX IMVI melanoma
EKVX NSCLC = test system: EKVX NSCLC
HOP-92 NSCLC = test system: HOP-92 NSCLC
RXF 393 renal = test system: RXF 393 renal
U251 CNS = test system: U251 CNS
BT-549 breast = test system: BT-549 breast
HCT-116 colon = test system: HCT-116 colon
SK-OV-3 ovarian = test system: SK-OV-3 ovarian
MOLT-4 leukemia = test system: MOLT-4 leukemia
IGROV1 ovarian = test system: IGROV1 ovarian
COLO 205 colon = test system: COLO 205 colon
HS 578T breast = test system: HS 578T breast
786-0 renal = test system: 786-0 renal
HOP-62 NSCLC = test system: HOP-62 NSCLC
MDA-MB-231 breast = test system: MDA-MB-231 breast
MALME-3M melanoma = test system: MALME-3M melanoma
SNB-75 CNS = test system: SNB-75 CNS
SR leukemia = test system: SR leukemia
PC-3 prostate = test system: PC-3 prostate
OVCAR-8 ovarian = test system: OVCAR-8 ovarian
MDA-MB-468 breast = test system: MDA-MB-468 breast
UACC-62 melanoma = test system: UACC-62 melanoma
A549 NSCLC = test system: A549 NSCLC
SNB-19 CNS = test system: SNB-19 CNS
UO-31 renal = test system: UO-31 renal
SF-295 CNS = test system: SF-295 CNS
M14 melanoma = test system: M14 melanoma
OVCAR-4 ovarian = test system: OVCAR-4 ovarian
SF-268 CNS = test system: SF-268 CNS
CAKI-1 renal = test system: CAKI-1 renal
SF-539 CNS = test system: SF-539 CNS
NCI-H522 lung = test system: NCI-H522 lung
NCI-H460 lung = test system: NCI-H460 lung

Which GI50 (MDA-MB-435) does the source give for `O=C(c1ccc(Cl)cc1)c1ccc(OCCCN2CCN(c3ccncc3)CC2)cc1` here?
The GI50 was 3.09 µM.

And the TGI (MDA-MB-435)?
Its TGI is 11.5 µM.

And the GI50 (KM12 colon)?
Its GI50 is 4.57 µM.

And the TGI (KM12 colon)?
Its TGI is 17 µM.

What about the GI50 (SN12C renal) of the same compound?
The GI50 was 10.9 µM.

What about the TGI (SN12C renal) of the same compound?
Its TGI is 23.2 µM.

What about the GI50 (K-562 leukemia) of the same compound?
Its GI50 is 1.08 µM.

And the TGI (K-562 leukemia)?
The TGI was 4.8 µM.

What about the GI50 (HT29 colon) of the same compound?
The GI50 was 1.81 µM.

And the TGI (HT29 colon)?
The TGI was 6.41 µM.

What about the GI50 (SK-MEL-5 melanoma) of the same compound?
The GI50 was 1.73 µM.

What about the TGI (SK-MEL-5 melanoma) of the same compound?
Its TGI is 4.18 µM.

What about the GI50 (SW-620 colon) of the same compound?
Its GI50 is 2.57 µM.

And the GI50 (HCC-2998 colon)?
Its GI50 is 3.01 µM.

And the TGI (HCC-2998 colon)?
Its TGI is 8.47 µM.

What about the GI50 (ACHN renal) of the same compound?
Its GI50 is 8.94 µM.

And the TGI (ACHN renal)?
The TGI was 21.1 µM.

And the GI50 (OVCAR-3 ovarian)?
The GI50 was 3.9 µM.

What about the TGI (OVCAR-3 ovarian) of the same compound?
Its TGI is 17.3 µM.

And the GI50 (HL-60(TB) leukemia)?
Its GI50 is 1.46 µM.

What about the TGI (HL-60(TB) leukemia) of the same compound?
Its TGI is 3.59 µM.

What about the GI50 (A498 renal) of the same compound?
Its GI50 is 16 µM.

And the TGI (A498 renal)?
The TGI was 30.2 µM.

And the GI50 (SK-MEL-28 melanoma)?
The GI50 was 1.99 µM.

And the TGI (SK-MEL-28 melanoma)?
Its TGI is 3.82 µM.

What about the GI50 (CCRF-CEM leukemia) of the same compound?
The GI50 was 2.7 µM.

And the TGI (CCRF-CEM leukemia)?
The TGI was 12.2 µM.

What about the GI50 (NCI-H226 lung) of the same compound?
The GI50 was 4.22 µM.

What about the TGI (NCI-H226 lung) of the same compound?
Its TGI is 19.8 µM.

What about the GI50 (DU-145 prostate) of the same compound?
Its GI50 is 10.1 µM.

And the TGI (DU-145 prostate)?
The TGI was 23.6 µM.

What about the GI50 (UACC-257 melanoma) of the same compound?
The GI50 was 4.04 µM.

And the TGI (UACC-257 melanoma)?
The TGI was 15.7 µM.

And the GI50 (OVCAR-5 ovarian)?
Its GI50 is 10.5 µM.

What about the TGI (OVCAR-5 ovarian) of the same compound?
The TGI was 22.9 µM.

What about the GI50 (T-47D breast) of the same compound?
Its GI50 is 3.22 µM.

What about the TGI (T-47D breast) of the same compound?
Its TGI is 18.3 µM.

And the GI50 (NCI-H23 lung)?
The GI50 was 2.89 µM.

What about the TGI (NCI-H23 lung) of the same compound?
Its TGI is 11.7 µM.

What about the GI50 (TK-10 renal) of the same compound?
The GI50 was 12.3 µM.

What about the TGI (TK-10 renal) of the same compound?
Its TGI is 25.6 µM.

And the GI50 (HCT-15 colon)?
Its GI50 is 1.48 µM.

What about the TGI (HCT-15 colon) of the same compound?
Its TGI is 4.46 µM.

What about the GI50 (RPMI-8226 leukemia) of the same compound?
Its GI50 is 2.38 µM.

What about the TGI (RPMI-8226 leukemia) of the same compound?
The TGI was 10 µM.

What about the GI50 (MCF7 breast) of the same compound?
Its GI50 is 1.89 µM.

What about the TGI (MCF7 breast) of the same compound?
Its TGI is 5.16 µM.

And the GI50 (LOX IMVI melanoma)?
The GI50 was 1.69 µM.

What about the TGI (LOX IMVI melanoma) of the same compound?
Its TGI is 3.25 µM.

What about the GI50 (EKVX NSCLC) of the same compound?
The GI50 was 3.62 µM.

And the TGI (EKVX NSCLC)?
The TGI was 15.5 µM.

And the GI50 (HOP-92 NSCLC)?
The GI50 was 1.54 µM.

And the TGI (HOP-92 NSCLC)?
Its TGI is 11.2 µM.

What about the GI50 (RXF 393 renal) of the same compound?
Its GI50 is 0.831 µM.

What about the TGI (RXF 393 renal) of the same compound?
Its TGI is 6.4 µM.

And the GI50 (U251 CNS)?
The GI50 was 3.98 µM.

And the TGI (U251 CNS)?
The TGI was 15.2 µM.

What about the GI50 (BT-549 breast) of the same compound?
Its GI50 is 2.86 µM.

And the TGI (BT-549 breast)?
Its TGI is 9.3 µM.

And the GI50 (HCT-116 colon)?
The GI50 was 2.17 µM.

What about the TGI (HCT-116 colon) of the same compound?
Its TGI is 11.1 µM.

And the GI50 (SK-OV-3 ovarian)?
The GI50 was 5.1 µM.

And the TGI (SK-OV-3 ovarian)?
Its TGI is 18.4 µM.

And the GI50 (MOLT-4 leukemia)?
Its GI50 is 2.88 µM.

What about the TGI (MOLT-4 leukemia) of the same compound?
The TGI was 9.07 µM.

And the GI50 (IGROV1 ovarian)?
Its GI50 is 6.59 µM.

And the TGI (IGROV1 ovarian)?
Its TGI is 21 µM.

What about the GI50 (COLO 205 colon) of the same compound?
The GI50 was 1.7 µM.

What about the TGI (COLO 205 colon) of the same compound?
Its TGI is 3.51 µM.

And the GI50 (HS 578T breast)?
Its GI50 is 6.05 µM.

And the TGI (HS 578T breast)?
Its TGI is 27.7 µM.

And the GI50 (786-0 renal)?
The GI50 was 1.69 µM.

And the TGI (786-0 renal)?
Its TGI is 3.27 µM.

And the GI50 (HOP-62 NSCLC)?
Its GI50 is 5.07 µM.

And the TGI (HOP-62 NSCLC)?
Its TGI is 18.3 µM.

And the GI50 (MDA-MB-231 breast)?
Its GI50 is 4.32 µM.

And the TGI (MDA-MB-231 breast)?
The TGI was 17.3 µM.

What about the GI50 (MALME-3M melanoma) of the same compound?
Its GI50 is 1.79 µM.

And the TGI (MALME-3M melanoma)?
Its TGI is 3.41 µM.

What about the GI50 (SNB-75 CNS) of the same compound?
The GI50 was 3.17 µM.

What about the TGI (SNB-75 CNS) of the same compound?
The TGI was 18.6 µM.

And the GI50 (SR leukemia)?
Its GI50 is 1.7 µM.

What about the TGI (SR leukemia) of the same compound?
The TGI was 5.65 µM.

What about the GI50 (PC-3 prostate) of the same compound?
Its GI50 is 3.4 µM.

What about the TGI (PC-3 prostate) of the same compound?
The TGI was 21.4 µM.

And the GI50 (OVCAR-8 ovarian)?
The GI50 was 9.52 µM.

What about the TGI (OVCAR-8 ovarian) of the same compound?
The TGI was 46.1 µM.

What about the GI50 (MDA-MB-468 breast) of the same compound?
Its GI50 is 1.39 µM.

And the TGI (MDA-MB-468 breast)?
The TGI was 4.38 µM.

What about the GI50 (UACC-62 melanoma) of the same compound?
The GI50 was 1.8 µM.

What about the TGI (UACC-62 melanoma) of the same compound?
Its TGI is 3.63 µM.

What about the GI50 (A549 NSCLC) of the same compound?
Its GI50 is 9.41 µM.

What about the TGI (A549 NSCLC) of the same compound?
Its TGI is 23.7 µM.

And the GI50 (SNB-19 CNS)?
Its GI50 is 9.11 µM.

And the TGI (SNB-19 CNS)?
Its TGI is 21.8 µM.

What about the GI50 (UO-31 renal) of the same compound?
Its GI50 is 2.36 µM.

And the TGI (UO-31 renal)?
The TGI was 10.4 µM.

And the GI50 (SF-295 CNS)?
Its GI50 is 2.04 µM.

What about the TGI (SF-295 CNS) of the same compound?
Its TGI is 4.82 µM.

And the GI50 (M14 melanoma)?
Its GI50 is 1.77 µM.

What about the TGI (M14 melanoma) of the same compound?
Its TGI is 3.51 µM.

And the GI50 (OVCAR-4 ovarian)?
The GI50 was 5.07 µM.

And the TGI (OVCAR-4 ovarian)?
The TGI was 23.9 µM.

What about the GI50 (SF-268 CNS) of the same compound?
Its GI50 is 11.6 µM.

And the TGI (SF-268 CNS)?
The TGI was 27.9 µM.

What about the GI50 (CAKI-1 renal) of the same compound?
The GI50 was 4.95 µM.

What about the TGI (CAKI-1 renal) of the same compound?
Its TGI is 19.4 µM.

And the GI50 (SF-539 CNS)?
Its GI50 is 1.77 µM.

What about the TGI (SF-539 CNS) of the same compound?
Its TGI is 4.58 µM.

And the GI50 (NCI-H522 lung)?
The GI50 was 10.3 µM.

What about the TGI (NCI-H522 lung) of the same compound?
Its TGI is 23.4 µM.

And the GI50 (NCI-H460 lung)?
The GI50 was 4.81 µM.

And the TGI (NCI-H460 lung)?
The TGI was 18 µM.
